Laboratory results reported in patent publication US8466193B2, “Selective inhibitors of histone deacetylase” (Pharmacyclics, Inc., priority 2008, dated 2013).

Columns and labels:
HDAC6 = biological target: T1, HDAC6 (Homo sapiens, UniProt Q9UBN7); experiment: Histone deacetylase activity, continuous trypsin-coupled assay; format: biochemical; conditions: 15 minutes preincubation; substrate acetyl-Gly-Ala-(N-acetyl-Lys)-AMC
T1 sequence (Q9UBN7 1-1215): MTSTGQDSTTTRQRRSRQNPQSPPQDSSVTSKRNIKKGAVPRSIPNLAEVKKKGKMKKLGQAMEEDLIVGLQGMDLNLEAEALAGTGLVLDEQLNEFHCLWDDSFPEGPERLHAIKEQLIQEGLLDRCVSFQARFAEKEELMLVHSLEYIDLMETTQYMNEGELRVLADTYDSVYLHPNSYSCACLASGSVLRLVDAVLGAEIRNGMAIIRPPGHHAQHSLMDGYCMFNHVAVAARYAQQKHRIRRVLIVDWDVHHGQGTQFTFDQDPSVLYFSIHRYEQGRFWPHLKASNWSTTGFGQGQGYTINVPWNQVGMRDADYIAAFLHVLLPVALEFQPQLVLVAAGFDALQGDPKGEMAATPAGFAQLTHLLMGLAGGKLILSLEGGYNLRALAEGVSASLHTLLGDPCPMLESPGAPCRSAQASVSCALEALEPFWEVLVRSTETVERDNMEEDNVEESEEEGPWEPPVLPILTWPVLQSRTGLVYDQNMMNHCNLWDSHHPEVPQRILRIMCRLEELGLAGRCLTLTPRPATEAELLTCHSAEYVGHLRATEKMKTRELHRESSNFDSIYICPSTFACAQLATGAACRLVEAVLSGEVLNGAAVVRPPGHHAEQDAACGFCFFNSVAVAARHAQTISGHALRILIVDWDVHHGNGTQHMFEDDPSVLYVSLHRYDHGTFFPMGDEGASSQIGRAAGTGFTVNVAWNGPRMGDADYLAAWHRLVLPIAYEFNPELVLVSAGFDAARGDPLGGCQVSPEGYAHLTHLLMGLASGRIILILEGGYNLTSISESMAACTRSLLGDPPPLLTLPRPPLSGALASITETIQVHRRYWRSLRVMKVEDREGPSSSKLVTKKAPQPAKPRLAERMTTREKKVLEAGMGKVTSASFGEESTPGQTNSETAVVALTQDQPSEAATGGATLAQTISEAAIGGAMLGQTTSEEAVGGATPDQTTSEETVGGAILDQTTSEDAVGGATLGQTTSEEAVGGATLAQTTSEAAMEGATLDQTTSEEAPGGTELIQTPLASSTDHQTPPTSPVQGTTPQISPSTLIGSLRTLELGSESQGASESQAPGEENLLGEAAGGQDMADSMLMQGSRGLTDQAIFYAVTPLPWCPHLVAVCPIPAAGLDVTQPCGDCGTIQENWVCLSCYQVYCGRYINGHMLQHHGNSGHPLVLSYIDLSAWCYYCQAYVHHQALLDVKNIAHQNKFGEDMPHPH
Experimental: (§1) HDAC activity was measured using a continuous trypsin-coupled assay that has been described in detail previously (US 20070281934; Schultz et. al., Biochemistry, 43 (34), 11083-11091, 2004; Kim et al. (2006), Methods Mol. Biol., 325:273-283). For inhibitor characterization, measurements were performed in a reaction volume of 100 μL using 96-well assay plates in a fluorescence plate reader. For each isozyme, the HDAC protein in reaction buffer (50 mM HEPES, 100 mM KCl, 0.001% Tween-20, 5% DMSO, pH 7.4, supplemented with bovine serum albumin at concentrations of 0-0.05%, was mixed with inhibitor at various concentrations and allowed to incubate for 15 minutes. Trypsin was added to a final concentration of 50 nM, and acetyl-Gly-Ala-(N-acetyl-Lys)-AMC was added to a final concentration of 25-100 μM to initiate the reaction. After a 30 minute lag time, the fluorescence was measured over a 30 minute time frame using an excitation wavelength of 355 nm and a detection wavelength of 460 nm. The increase in fluorescence with time was used as the measure of the reaction rate. Inhibition constants Ki(app) were obtained using the program BatchKi (Biokin, Pullman, Wash.).

HDAC1 = HDAC1 (Homo sapiens, UniProt Q13547); experiment: as above; format: biochemical; conditions: 15 minutes preincubation; substrate acetyl-Gly-Ala-(N-acetyl-Lys)-AMC
Chain of HDAC1 (Q13547 whole entry, species assumed): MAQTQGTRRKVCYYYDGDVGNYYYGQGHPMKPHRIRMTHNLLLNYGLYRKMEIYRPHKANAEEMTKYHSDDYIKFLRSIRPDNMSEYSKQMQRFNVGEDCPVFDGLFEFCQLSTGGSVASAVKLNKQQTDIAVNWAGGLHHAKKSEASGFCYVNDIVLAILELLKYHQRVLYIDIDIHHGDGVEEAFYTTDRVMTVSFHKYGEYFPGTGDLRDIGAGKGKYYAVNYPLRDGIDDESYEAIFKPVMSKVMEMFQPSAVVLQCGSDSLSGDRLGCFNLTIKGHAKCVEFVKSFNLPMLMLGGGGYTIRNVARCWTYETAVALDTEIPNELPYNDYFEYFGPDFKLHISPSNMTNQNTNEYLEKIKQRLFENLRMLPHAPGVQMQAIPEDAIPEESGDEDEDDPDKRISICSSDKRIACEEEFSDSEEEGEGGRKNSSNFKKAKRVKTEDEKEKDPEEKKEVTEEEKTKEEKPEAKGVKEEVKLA
Experimental: as §1

HDAC8 = biological target: T2, HDAC8 (Homo sapiens, UniProt Q9BY41); experiment: as above; format: biochemical; conditions: 15 minutes preincubation; substrate acetyl-Gly-Ala-(N-acetyl-Lys)-AMC
T2 sequence (Q9BY41 1-377): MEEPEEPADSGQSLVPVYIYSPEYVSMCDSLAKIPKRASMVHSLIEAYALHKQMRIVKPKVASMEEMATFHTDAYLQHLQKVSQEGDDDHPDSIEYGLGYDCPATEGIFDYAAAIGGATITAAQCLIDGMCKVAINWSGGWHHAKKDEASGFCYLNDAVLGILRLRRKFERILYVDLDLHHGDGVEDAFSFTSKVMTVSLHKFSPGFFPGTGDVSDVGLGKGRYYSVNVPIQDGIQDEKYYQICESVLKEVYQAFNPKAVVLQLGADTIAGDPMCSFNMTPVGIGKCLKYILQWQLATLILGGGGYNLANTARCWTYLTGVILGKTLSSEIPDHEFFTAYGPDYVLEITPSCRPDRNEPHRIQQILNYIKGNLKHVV
Experimental: as §1

Jurkat cells = experiment: Cell proliferation assay, growth inhibition by Alamar Blue; format: cell-based; conditions: Jurkat cells treated with compound for 3 days
Experimental: Cell lines were obtained from DSMZ (Braunschweig, Germany) or ATCC (Manassas, Va.). Cells were grown in RPMI 1640 with 10% fetal bovine serum in a 5% CO2/air incubator at 37° C. Thapsigargin and BAPTA-AM were from Calbiochem (San Diego, Calif.). 3-((dimethylamino)methyl)-N-(2-(4-(hydroxycarbamoyl)phenoxy)ethyl)benzofuran-2-carboxamide is a broad-spectrum HDAC inhibitor which was synthesized as previously described. Other analogs with varying degrees of specificity towards the HDAC isoforms were synthesized as described herein.
Tumor cell lines and human umbilical vein endothelial cells (HUVEC) were cultured for at least two doubling times, and growth was monitored at the end of compound exposure using an Alamar Blue™ (Biosource, Camarillo, Calif.) fluorometric cell proliferation assay as recommended by the manufacturer. Compounds were assayed in triplicate wells in 96-well plates. The concentration required to inhibit cell growth by 50% (GI50) and 95% confidence intervals were estimated from nonlinear regression using a 4-parameter logistic equation. The effect of HDAC8 selective inhibitor compounds on cell proliferation in Jurkat cells was measured. Apoptosis was measured by Annexin-V flow cytommetry. Growth inhibition was measured by Alamar Blue assay. Cells were treated with compound for 3 days.

HDAC2 = HDAC2 (Homo sapiens, UniProt Q92769); experiment: Histone deacetylase activity, continuous trypsin-coupled assay; format: biochemical; conditions: 15 minutes preincubation; substrate acetyl-Gly-Ala-(N-acetyl-Lys)-AMC
Chain of HDAC2 (Q92769 whole entry, species assumed): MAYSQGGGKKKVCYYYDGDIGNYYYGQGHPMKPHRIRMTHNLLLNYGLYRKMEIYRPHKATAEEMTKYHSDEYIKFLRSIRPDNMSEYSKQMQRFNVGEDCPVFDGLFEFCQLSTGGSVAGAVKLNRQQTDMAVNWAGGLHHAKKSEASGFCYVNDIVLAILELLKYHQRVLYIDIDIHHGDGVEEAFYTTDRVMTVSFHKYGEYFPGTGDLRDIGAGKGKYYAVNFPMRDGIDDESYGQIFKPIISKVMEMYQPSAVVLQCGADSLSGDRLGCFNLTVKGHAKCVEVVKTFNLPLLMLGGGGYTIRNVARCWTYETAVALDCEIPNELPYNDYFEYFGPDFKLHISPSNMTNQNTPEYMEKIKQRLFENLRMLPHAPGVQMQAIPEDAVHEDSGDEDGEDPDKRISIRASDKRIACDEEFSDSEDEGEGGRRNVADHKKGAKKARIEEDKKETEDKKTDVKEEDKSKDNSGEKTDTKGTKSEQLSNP
Experimental: as §1

HDAC10 = biological target: T3, HDAC10 (Homo sapiens, UniProt Q969S8); experiment: as above; format: biochemical; conditions: 15 minutes preincubation; substrate acetyl-Gly-Ala-(N-acetyl-Lys)-AMC
T3 sequence (Q969S8 1-669): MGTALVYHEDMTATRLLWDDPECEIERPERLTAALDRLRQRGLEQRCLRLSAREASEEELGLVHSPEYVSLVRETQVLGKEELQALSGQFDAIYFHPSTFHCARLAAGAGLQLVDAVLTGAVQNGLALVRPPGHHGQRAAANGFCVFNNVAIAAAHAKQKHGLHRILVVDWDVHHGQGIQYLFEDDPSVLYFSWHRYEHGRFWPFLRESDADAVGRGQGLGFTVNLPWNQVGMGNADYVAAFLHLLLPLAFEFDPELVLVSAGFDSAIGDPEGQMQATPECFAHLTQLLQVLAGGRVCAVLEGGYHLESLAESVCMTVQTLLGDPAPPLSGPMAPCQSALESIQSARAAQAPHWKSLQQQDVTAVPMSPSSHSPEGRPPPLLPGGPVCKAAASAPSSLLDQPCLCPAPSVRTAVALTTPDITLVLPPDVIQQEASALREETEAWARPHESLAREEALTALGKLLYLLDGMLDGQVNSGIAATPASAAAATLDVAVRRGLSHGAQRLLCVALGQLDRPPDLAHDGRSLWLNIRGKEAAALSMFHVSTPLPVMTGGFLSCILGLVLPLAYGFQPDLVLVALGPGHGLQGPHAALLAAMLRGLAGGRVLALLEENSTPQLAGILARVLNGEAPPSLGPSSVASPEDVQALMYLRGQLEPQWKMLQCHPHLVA
Experimental: as §1

O=C(NO)c1ccc2ncn(Cc3ccccc3)c2c1 [Compound 1, 3-benzyl-N-hydroxy-3H-benzo[d]imidazole-5-carboxamide]
IC50 (HDAC6): 1 to 10 µM
IC50 (HDAC1): > 10 µM
IC50 (HDAC8): < 1000 nM

COc1ccc(Cn2cccc2/C=C/C(=O)NO)cc1 [Compound 203, (E)-3-(1-(4-methoxybenzyl)-1H-pyrrol-2-yl)-N-hydroxyacrylamide]
IC50 (HDAC6): 1 to 10 µM
IC50 (HDAC1): > 10 µM
IC50 (HDAC8): < 1000 nM

O=C(/C=C/c1cccn1CCOc1ccccc1)NO [Compound 232, (E)-N-hydroxy-3-(2-phenoxyethyl-1H-pyrrol-2-yl)acrylamide]
IC50 (HDAC6): 1 to 10 µM
IC50 (HDAC1): > 10 µM
IC50 (HDAC8): < 1000 nM
GI50 (Jurkat cells): 4.98 µM

O=C(/C=C/c1cccn1CCOc1cccc(F)c1)NO [Compound 234, (E)-3-(1-(2-(3-fluorophenoxy)ethyl)-1H-pyrrol-2-yl)-N-hydroxyacrylamide]
IC50 (HDAC6): 1 to 10 µM
IC50 (HDAC1): 1 to 10 µM
IC50 (HDAC8): < 1000 nM
GI50 (Jurkat cells; Homo sapiens, 72 h): 4.3 µM

O=C(NO)c1ccc2ccn(CCc3ccccc3)c2c1 [Compound 302, N-hydroxy-1-(2-phenyl-ethyl)-1H-indole-6-carboxamide]
GI50 (Jurkat cells; Homo sapiens, 72 h): 25.2 µM

COc1ccc(Cn2ccc3ccc(C(=O)NO)cc32)cc1 [Compound 306, N-hydroxy-1-(4-methoxybenzyl)-1H-indole-6-carboxamide]
GI50 (Jurkat cells; Homo sapiens, 72 h): 3.6 µM

COc1ccc(Cn2cc(CN(C)C)c3ccc(C(=O)NO)cc32)cc1 [Compound 307, N-hydroxy-1-(4-methoxybenzyl)-3-(dimethylaminomethyl)-1H-indole-6-carboxamide]
IC50 (HDAC2): > 10 µM
IC50 (HDAC8): < 1000 nM

COc1ccc(Cn2cc(CNCc3ccccc3)c3ccc(C(=O)NO)cc32)cc1 [Compound 308, 3-((benzylamino)methyl)-N-hydroxy-1-(4-methoxybenzyl)-1H-indole-6-carboxamide]
GI50 (Jurkat cells; Homo sapiens, 72 h): 5.2 µM

COc1ccc(Cn2cc(CN(C)CCc3ccccn3)c3ccc(C(=O)NO)cc32)cc1 [Compound 309, N-hydroxy-1-(4-methoxybenzyl)-3-((methyl(2-(pyridin-2-yl)ethyl)amino)methyl)-1H-indole-6-carboxamide]
IC50 (HDAC2): > 10 µM
IC50 (HDAC8): < 1000 nM
GI50 (Jurkat cells; Homo sapiens, 72 h): 19.2 µM

COc1ccc(Cn2ccc3ccc(C(=O)NO)cc32)cn1 [Compound 310, N-hydroxy-1-(2-methoxylpyridin-5-ylmethyl)-1H-indole-6-carboxamide]
IC50 (HDAC2): > 10 µM
IC50 (HDAC8): < 1000 nM
GI50 (Jurkat cells; Homo sapiens, 72 h): 16 µM

O=C(NO)c1ccc2ccn(Cc3cccc(NS(=O)(=O)c4ccccc4)c3)c2c1 [Compound 313, N-hydroxy-1-(3-(phenylsulfonamido)benzyl)-1H-indole-6-carboxamide]
IC50 (HDAC2): 1 to 10 µM
IC50 (HDAC8): < 1000 nM
GI50 (Jurkat cells; Homo sapiens, 72 h): 5.2 µM

O=C(NO)c1ccc2ccn(Cc3ccc4c(c3)OCO4)c2c1 [Compound 315, N-hydroxy-1-(benzo[d][1,3]dioxol-5-ylmethyl)-1H-indole-6-carboxamide]
IC50 (HDAC2): > 10 µM
IC50 (HDAC8): < 1000 nM

O=C(NO)c1ccc2ccn(CCOc3ccccc3F)c2c1 [Compound 317, N-hydroxy-1-(2-(2-fluorophenoxy)ethyl)-1H-indole-6-carboxamide]
IC50 (HDAC6): 1 to 10 µM
IC50 (HDAC1): > 10 µM
IC50 (HDAC8): < 1000 nM

O=C(NO)c1ccc2ccn(CCOc3cccc(F)c3)c2c1 [Compound 318, N-hydroxy-1-(2-(3-fluorophenoxy)ethyl)-1H-indole-6-carboxamide]
IC50 (HDAC6): 1 to 10 µM
IC50 (HDAC1): > 10 µM
IC50 (HDAC8): < 1000 nM

O=C(NO)c1ccc2ccn(CCOc3ccccc3Cl)c2c1 [Compound 320, N-hydroxy-1-(2-(2-chlorophenoxy)ethyl)-1H-indole-6-carboxamide]
IC50 (HDAC6): 1 to 10 µM
IC50 (HDAC1): > 10 µM
IC50 (HDAC8): < 1000 nM

O=C(NO)c1ccc2ccn(CCOc3cccc(Cl)c3)c2c1 [Compound 321, N-hydroxy-1-(2-(3-chlorophenoxy)ethyl)-1H-indole-6-carboxamide]
IC50 (HDAC6): 1 to 10 µM
IC50 (HDAC1): > 10 µM
IC50 (HDAC8): < 1000 nM

O=C(NO)c1ccc2ccn(CCOc3ccccc3CN3CCOCC3)c2c1 [Compound 326, N-hydroxy-1-(2-(2-(morpholin-4-ylmethyl)phenoxy)ethyl)-1H-indole-6-carboxamide]
IC50 (HDAC6): > 10 µM
IC50 (HDAC10): > 10 µM
IC50 (HDAC1): > 10 µM
IC50 (HDAC8): < 1000 nM

O=C(NO)c1ccc2ccn(CCOc3ccc(CN4CCOCC4)cc3)c2c1 [Compound 328, N-hydroxy-1-(2-(4-(morpholin-4-ylmethyl)phenoxy)ethyl)-1H-indole-6-carboxamide]
GI50 (Jurkat cells; Homo sapiens, 72 h): 12.5 µM

COc1ccc(Cn2ccc3ccc(C(=O)NO)cc32)cc1F [Compound 330, N-hydroxy-1-(3-fluoro-4-methoxybenzyl)-1H-indole-6-carboxamide]
GI50 (Jurkat cells; Homo sapiens, 72 h): 4.7 µM
